Earlier results as cited in US6316473A, “Two surfactant-containing medicinal composition” (Fujisawa Pharmaceutical Co., Ltd., priority 1997, dated 2001).

Conditions: stated as well known

solubility in water: only sparingly soluble in water
SMILES: C=CC[C@@H]1/C=C(\C)C[C@H](C)C[C@H](OC)[C@H]2O[C@@](O)(C(=O)C(=O)N3CCCC[C@H]3C(=O)O[C@H](/C(C)=C/[C@@H]3CC[C@@H](O)[C@H](OC)C3)[C@H](C)[C@@H](O)CC1=O)[C@H](C)C[C@@H]2OC [FK506, 17-allyl-1,14-dihydroxy-12-[2-(4-hydroxy-3-methoxycyclohexyl)-1-methylvinyl]-23,25-dimethoxy-13,19,21,27-tetramethyl-11,28-dioxa-4-azatricyclo[22.3. 1.0 4,9]octacos-18-ene-2,3,10,16-tetraone]
